# Reference: PMC6917776, “Discovery of a chemical probe for PRDM9” (Nature Communications, 2019)
# Read-outs that look alike come from different tables or passages of the source.
# How the values were obtained:
# Assay in all cases: Methyltransferase selectivity assay (SPA)
# Type in all cases: biochemical
# [1] = molecular target: T1, EZH2 (PRC2) trimeric complex (Homo sapiens, UniProt Q15910)
# T1 construct: purchased Structural Genomics Consortium (SGC Toronto) in-house methyltransferase panel
# T1 sequence (Q15910 whole entry): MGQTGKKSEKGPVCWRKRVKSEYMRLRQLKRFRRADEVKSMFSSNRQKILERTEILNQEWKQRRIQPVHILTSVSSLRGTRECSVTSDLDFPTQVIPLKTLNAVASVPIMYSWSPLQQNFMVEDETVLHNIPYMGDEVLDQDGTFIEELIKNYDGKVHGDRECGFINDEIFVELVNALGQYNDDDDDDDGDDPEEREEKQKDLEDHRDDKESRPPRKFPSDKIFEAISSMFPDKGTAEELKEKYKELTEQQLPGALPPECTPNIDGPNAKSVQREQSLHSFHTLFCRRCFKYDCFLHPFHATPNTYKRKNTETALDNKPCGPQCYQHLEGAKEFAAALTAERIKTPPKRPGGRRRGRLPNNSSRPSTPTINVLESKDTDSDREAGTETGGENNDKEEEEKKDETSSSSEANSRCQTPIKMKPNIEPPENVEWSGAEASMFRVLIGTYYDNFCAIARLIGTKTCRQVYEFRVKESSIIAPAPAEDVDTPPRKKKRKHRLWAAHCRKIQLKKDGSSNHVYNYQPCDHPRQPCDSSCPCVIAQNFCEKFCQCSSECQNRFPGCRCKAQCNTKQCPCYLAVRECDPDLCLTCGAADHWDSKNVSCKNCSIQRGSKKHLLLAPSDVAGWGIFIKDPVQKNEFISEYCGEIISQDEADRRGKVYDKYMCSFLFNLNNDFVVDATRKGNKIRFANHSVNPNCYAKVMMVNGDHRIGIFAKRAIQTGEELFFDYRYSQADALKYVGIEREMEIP
# T1 sequence (O75530 whole entry partner): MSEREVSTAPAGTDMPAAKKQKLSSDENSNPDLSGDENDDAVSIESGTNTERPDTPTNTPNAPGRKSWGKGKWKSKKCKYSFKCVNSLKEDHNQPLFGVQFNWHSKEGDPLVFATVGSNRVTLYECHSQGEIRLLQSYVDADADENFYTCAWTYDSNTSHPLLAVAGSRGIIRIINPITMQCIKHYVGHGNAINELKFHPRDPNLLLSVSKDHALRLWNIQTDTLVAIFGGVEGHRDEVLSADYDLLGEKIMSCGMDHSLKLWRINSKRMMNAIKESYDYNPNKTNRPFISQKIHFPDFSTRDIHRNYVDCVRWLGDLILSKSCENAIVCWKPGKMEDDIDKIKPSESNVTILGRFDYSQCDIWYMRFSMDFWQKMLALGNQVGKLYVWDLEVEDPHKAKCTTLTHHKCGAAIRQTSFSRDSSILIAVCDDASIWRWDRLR
# T1 sequence (Q15022 whole entry partner): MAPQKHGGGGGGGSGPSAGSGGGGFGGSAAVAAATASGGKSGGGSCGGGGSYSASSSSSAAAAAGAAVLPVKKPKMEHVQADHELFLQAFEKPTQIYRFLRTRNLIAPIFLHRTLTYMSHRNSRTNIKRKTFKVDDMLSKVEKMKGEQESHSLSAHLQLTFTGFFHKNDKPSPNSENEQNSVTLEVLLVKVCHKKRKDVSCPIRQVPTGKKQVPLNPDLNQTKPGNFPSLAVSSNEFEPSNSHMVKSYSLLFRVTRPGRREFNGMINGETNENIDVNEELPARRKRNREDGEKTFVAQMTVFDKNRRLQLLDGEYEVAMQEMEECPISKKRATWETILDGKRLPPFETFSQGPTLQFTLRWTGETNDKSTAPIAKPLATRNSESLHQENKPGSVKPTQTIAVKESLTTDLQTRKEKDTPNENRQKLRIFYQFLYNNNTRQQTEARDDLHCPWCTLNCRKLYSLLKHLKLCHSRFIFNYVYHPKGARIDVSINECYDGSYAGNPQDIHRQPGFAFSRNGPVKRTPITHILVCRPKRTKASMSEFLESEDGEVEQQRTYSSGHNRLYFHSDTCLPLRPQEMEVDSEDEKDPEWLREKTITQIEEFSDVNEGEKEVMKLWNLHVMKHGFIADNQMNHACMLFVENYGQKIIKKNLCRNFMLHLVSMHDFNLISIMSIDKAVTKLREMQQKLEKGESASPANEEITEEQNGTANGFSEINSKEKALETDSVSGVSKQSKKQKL
# Description: (§1) Selectivity against methyltransferases were determined as described previously. Details of the assays are described in the supplementary methods.
# (§2) Methyltransferase selectivity assay1
# (§3) The effect of chemical probes and negative controls on the methyltransferase activities of protein, DNA and RNA methyltransferases was tested by radiometric assays using 3H-SAM. For proteins such as MLL1 trimeric, MLL3 pentameric, EZH1 (PRC2) pentameric, and EZH2 (PRC2) trimeric complexes, as well as G9a, GLP, SUV39H1, SUV39H2, SUV420H1, SUV420H2, SETD2, SETD8, SETDB1, SETD7, PRMT1, PRMT3, PRMT4, PRMT5/ MEP50 complex, PRMT6, PRMT7, PRMT8, PRMT9, PRDM9, SMYD2, SMYD3, DNMT1, and BCDIN3D the incorporation of a tritium-labeled methyl group into biotinylated substrate was monitored using scintillation proximity assay (SPA). Briefly, a 10 µL reaction containing 3H-SAM and substrate at concentrations close to the apparent Km values for each enzyme (balanced conditions) was prepared. The reactions were quenched with 10 µL of 7.5 M guanidine hydrochloride; 180 µL of 20 mM Tris buffer (pH 8.0) were added, and the mixture was transferred to a 96-well FlashPlate and incubated for 1 h. The counts per minute (CPM) was measured on a TopCount plate reader. The CPM in the absence of compound or enzyme was defined as 100% activity and background (0%), respectively, for each dataset. […]
# [2] = molecular target: T2, MLL1 trimeric complex (Homo sapiens, UniProt Q03164)
# T2 construct: purchased Structural Genomics Consortium (SGC Toronto) in-house methyltransferase panel
# Description: as §1, §2, §3
# [3] = molecular target: T3, PRMT6 (Homo sapiens, UniProt Q96LA8)
# T3 construct: purchased Structural Genomics Consortium (SGC Toronto) in-house methyltransferase panel
# T3 sequence (Q96LA8 whole entry): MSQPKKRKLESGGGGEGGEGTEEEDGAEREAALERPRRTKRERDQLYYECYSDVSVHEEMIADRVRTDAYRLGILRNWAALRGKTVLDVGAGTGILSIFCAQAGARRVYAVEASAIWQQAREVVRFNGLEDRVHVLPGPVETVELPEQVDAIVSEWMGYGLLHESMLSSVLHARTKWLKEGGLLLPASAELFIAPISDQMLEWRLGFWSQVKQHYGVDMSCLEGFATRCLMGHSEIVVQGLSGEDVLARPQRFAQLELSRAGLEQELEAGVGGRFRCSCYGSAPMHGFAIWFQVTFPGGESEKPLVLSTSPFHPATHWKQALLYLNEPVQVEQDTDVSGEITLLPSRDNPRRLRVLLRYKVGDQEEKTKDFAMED
# Description: as §1, §2, §3
# [4] = molecular target: T4, PRMT7 (Homo sapiens, UniProt Q9NVM4)
# T4 construct: purchased Structural Genomics Consortium (SGC Toronto) in-house methyltransferase panel
# T4 sequence (Q9NVM4 1-692): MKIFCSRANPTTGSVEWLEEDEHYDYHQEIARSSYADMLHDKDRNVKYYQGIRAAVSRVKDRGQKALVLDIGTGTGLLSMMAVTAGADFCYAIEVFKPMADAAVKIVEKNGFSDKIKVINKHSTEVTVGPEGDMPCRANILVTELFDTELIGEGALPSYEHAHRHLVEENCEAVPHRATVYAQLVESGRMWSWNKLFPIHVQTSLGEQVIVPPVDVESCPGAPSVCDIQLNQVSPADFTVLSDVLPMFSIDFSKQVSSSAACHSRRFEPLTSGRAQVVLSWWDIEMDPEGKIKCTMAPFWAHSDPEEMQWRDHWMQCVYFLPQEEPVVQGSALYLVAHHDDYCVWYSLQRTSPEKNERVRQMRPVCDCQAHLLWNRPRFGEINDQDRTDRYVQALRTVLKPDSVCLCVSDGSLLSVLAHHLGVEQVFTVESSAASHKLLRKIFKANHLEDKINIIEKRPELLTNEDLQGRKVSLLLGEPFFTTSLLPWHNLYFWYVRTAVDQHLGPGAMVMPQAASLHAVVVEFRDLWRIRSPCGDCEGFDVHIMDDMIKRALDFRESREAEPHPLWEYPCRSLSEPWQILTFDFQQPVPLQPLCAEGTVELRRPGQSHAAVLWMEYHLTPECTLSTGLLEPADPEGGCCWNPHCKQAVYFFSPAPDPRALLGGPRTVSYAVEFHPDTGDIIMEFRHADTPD
# Description: as §1, §2, §3
# [5] = molecular target: T5, SETD7 (Homo sapiens, UniProt Q8WTS6)
# T5 construct: purchased Structural Genomics Consortium (SGC Toronto) in-house methyltransferase panel
# T5 sequence (Q8WTS6 1-366): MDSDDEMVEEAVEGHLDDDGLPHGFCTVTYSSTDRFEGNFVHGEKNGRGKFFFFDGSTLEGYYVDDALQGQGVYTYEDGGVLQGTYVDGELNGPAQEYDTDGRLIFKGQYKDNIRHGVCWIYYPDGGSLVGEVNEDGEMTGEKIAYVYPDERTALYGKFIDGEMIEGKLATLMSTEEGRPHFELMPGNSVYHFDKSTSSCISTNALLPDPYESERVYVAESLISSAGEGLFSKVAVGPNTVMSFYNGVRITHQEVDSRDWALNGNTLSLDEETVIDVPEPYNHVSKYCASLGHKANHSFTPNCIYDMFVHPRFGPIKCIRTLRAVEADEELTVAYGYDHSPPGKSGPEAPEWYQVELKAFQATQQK
# Description: as §1, §2, §3
# [6] = molecular target: T6, SMYD2 (Homo sapiens, UniProt Q9NRG4)
# T6 construct: purchased Structural Genomics Consortium (SGC Toronto) in-house methyltransferase panel
# T6 sequence (Q9NRG4 whole entry): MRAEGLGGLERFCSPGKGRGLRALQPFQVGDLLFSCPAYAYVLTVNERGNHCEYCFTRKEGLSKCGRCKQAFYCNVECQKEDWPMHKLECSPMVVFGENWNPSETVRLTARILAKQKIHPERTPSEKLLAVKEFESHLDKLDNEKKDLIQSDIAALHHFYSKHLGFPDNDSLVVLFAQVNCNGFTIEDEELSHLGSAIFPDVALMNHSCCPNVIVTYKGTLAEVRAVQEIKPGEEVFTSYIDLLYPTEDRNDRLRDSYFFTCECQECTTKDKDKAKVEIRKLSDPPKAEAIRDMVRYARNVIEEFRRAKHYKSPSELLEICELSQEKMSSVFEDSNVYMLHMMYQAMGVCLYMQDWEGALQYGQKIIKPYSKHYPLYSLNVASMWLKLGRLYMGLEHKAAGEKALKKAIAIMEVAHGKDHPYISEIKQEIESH
# Description: as §1, §2, §3
# [7] = molecular target: T7, SMYD3 (Homo sapiens, UniProt Q9H7B4)
# T7 construct: purchased Structural Genomics Consortium (SGC Toronto) in-house methyltransferase panel
# T7 sequence (Q9H7B4 1-428): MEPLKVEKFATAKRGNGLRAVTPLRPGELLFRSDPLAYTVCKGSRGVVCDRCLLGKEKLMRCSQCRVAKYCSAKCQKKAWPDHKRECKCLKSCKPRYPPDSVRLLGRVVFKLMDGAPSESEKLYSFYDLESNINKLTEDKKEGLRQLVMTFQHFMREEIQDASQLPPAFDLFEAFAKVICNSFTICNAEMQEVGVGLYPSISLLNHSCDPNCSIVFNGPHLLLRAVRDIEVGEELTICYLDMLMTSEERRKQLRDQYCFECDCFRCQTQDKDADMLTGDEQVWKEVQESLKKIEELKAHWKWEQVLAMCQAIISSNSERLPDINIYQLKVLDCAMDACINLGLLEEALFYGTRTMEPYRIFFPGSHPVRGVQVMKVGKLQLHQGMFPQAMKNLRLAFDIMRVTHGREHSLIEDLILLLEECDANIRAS
# Description: as §1, §2, §3
# [8] = molecular target: T8, SUV39H2 (Homo sapiens, UniProt Q9H5I1)
# T8 construct: purchased Structural Genomics Consortium (SGC Toronto) in-house methyltransferase panel
# T8 sequence (Q9H5I1 whole entry): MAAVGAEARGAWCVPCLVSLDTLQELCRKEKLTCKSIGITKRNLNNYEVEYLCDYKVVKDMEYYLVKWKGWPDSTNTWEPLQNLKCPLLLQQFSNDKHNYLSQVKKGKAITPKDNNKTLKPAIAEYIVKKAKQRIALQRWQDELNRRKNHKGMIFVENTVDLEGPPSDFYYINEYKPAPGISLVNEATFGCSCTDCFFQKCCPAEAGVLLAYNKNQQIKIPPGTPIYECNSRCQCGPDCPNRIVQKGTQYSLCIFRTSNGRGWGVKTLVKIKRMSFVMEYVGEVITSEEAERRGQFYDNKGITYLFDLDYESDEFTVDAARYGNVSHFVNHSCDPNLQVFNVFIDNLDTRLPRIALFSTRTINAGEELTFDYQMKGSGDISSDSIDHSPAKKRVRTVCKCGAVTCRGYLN
# Description: as §1, §2, §3
# [9] = 1µM compound, Exp1, Exp2, read-out: Activity %
# [10] = 10µM compound, Exp1, Exp2, 10 µM
# [11] = 10µM compound, Exp1, Exp2, read-out: Activity %
smiles,measurement,setting,value
COc1cc(OC)cc(-c2noc(N3CCN(C)C4(CCN(c5ccnc(C)c5)CC4)C3)n2)c1 [MRK-740],Activity %,"[1]; 1µM compound, Exp1, Exp2, 1 µM",104%
same,activity at 1 µM,[1]; [9],102%
same,Activity %,[1]; [10],103%
same,activity at 10 µM,[1]; [11],102%
same,Activity %,"[2]; 1µM compound, Exp1, Exp2, 1 µM",90%
same,activity at 1 µM,[2]; [9],96%
same,Activity %,[2]; [10],90%
same,activity at 10 µM,[2]; [11],94%
same,Activity %,"[3]; 1µM compound, Exp1, Exp2, 1 µM",94%
same,activity at 1 µM,[3]; [9],98%
same,Activity %,[3]; [10],93%
same,activity at 10 µM,[3]; [11],98%
same,Activity %,"[4]; 1µM compound, Exp1, Exp2, 1 µM",90%
same,activity at 1 µM,[4]; [9],92%
same,Activity %,[4]; [10],87%
same,activity at 10 µM,[4]; [11],89%
same,Activity %,"[5]; 1µM compound, Exp1, Exp2, 1 µM",92%
same,activity at 1 µM,[5]; [9],93%
same,Activity %,[5]; [10],87%
same,activity at 10 µM,[5]; [11],90%
same,Activity %,"[6]; 1µM compound, Exp1, Exp2, 1 µM",89%
same,activity at 1 µM,[6]; [9],86%
same,Activity %,[6]; [10],92%
same,activity at 10 µM,[6]; [11],91%
same,Activity %,"[7]; 1µM compound, Exp1, Exp2, 1 µM",91%
same,activity at 1 µM,[7]; [9],95%
same,Activity %,[7]; [10],101%
same,activity at 10 µM,[7]; [11],96%
same,Activity %,"[8]; 1µM compound, Exp1, Exp2, 1 µM",89%
same,activity at 1 µM,[8]; [9],92%
same,Activity %,[8]; [10],90%
same,activity at 10 µM,[8]; [11],92%
COc1cc(OC)cc(-c2noc(N3CCN(C)C4(CCN(c5ccccc5)CC4)C3)n2)c1 [MRK-740 -NC],activity at 1 µM,"[1]; 1µM compound, Exp1, Exp2",99%
same,Activity %,"[1]; 1µM compound, Exp1, Exp2, 1 µM",112%
same,activity at 10 µM,"[1]; 10µM compound, Exp1, Exp2",100%
same,Activity %,[1]; [10],95%
same,activity at 1 µM,"[2]; 1µM compound, Exp1, Exp2",95%
same,activity at 10 µM,"[2]; 10µM compound, Exp1, Exp2",98%
same,Activity %,[2]; [10],97%
same,activity at 1 µM,"[3]; 1µM compound, Exp1, Exp2",98%
same,Activity %,"[3]; 1µM compound, Exp1, Exp2, 1 µM",97%
same,activity at 10 µM,"[3]; 10µM compound, Exp1, Exp2",96%
same,Activity %,[3]; [10],95%
same,activity at 1 µM,"[4]; 1µM compound, Exp1, Exp2",99%
same,Activity %,"[4]; 1µM compound, Exp1, Exp2, 1 µM",92%
same,activity at 10 µM,"[4]; 10µM compound, Exp1, Exp2",91%
same,Activity %,[4]; [10],97%
same,activity at 1 µM,"[5]; 1µM compound, Exp1, Exp2",96%
same,Activity %,"[5]; 1µM compound, Exp1, Exp2, 1 µM",95%
same,activity at 10 µM,"[5]; 10µM compound, Exp1, Exp2",94%
same,Activity %,[5]; [10],88%
same,activity at 1 µM,"[6]; 1µM compound, Exp1, Exp2",102%
same,Activity %,"[6]; 1µM compound, Exp1, Exp2, 1 µM",100%
same,activity at 10 µM,"[6]; 10µM compound, Exp1, Exp2",101%
same,Activity %,[6]; [10],99%
same,activity at 1 µM,"[7]; 1µM compound, Exp1, Exp2",100%
same,Activity %,"[7]; 1µM compound, Exp1, Exp2, 1 µM",102%
same,activity at 10 µM,"[7]; 10µM compound, Exp1, Exp2",96%
same,Activity %,[7]; [10],89%
same,activity at 1 µM,"[8]; 1µM compound, Exp1, Exp2",93%
same,activity at 10 µM,"[8]; 10µM compound, Exp1, Exp2",86%
same,Activity %,[8]; [10],96%
